Patent US10829473B2, “Modulators of the cystic fibrosis transmembrane conductance regulator protein and methods of use” (AbbVie Overseas S.Á.R.L., priority 2017, dated 2020)
Read-outs that look alike come from different tables or passages of the source.

Target: T1, F508delCFTR (Homo sapiens, UniProt P13569, DEL508-508)
T1 construct: expressed in transfected cells; host or cells: CFBE41o- human lung derived epithelial cells (CFBE41o-F508delCFTR-HRP), doxycycline-inducible
Test: Cell Surface Expression-Horse Radish Peroxidase (CSE-HRP) Assay;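 on EC50 (with co-corrector): co-corrector chromenyl benzoic acid corrector at 2 or 3 µM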;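 on Maximum % activity (without co-corrector): % of on-plate positive control chromenyl benzoic acid corrector at 2 or 3 µM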
Assay type: cell-based
Conditions: for Maximum % activity (with co-corrector) / Emax: maximum at any tested concentration; for Emax: read-out: Maximum % activity (without co-corrector)
Summary of the method: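 Corrector compounds were given as 8-point 3-fold series from 20 or 30 μM, with or without a 2 μM co-corrector, for 18-24 h at 33 °C. Surface HRP was read by luminol luminescence as % of positive control; variable-Hill-slope sigmoidal fitting gave EC50 from triplicate plates.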

[1] = test compound alone, without co-corrector, read-out: EC50 (without co-corrector)
[2] = with co-corrector, read-out: EC50 (with co-corrector)

T1 sequence (P13569 with tags, fused parts or gaps DEL508-508): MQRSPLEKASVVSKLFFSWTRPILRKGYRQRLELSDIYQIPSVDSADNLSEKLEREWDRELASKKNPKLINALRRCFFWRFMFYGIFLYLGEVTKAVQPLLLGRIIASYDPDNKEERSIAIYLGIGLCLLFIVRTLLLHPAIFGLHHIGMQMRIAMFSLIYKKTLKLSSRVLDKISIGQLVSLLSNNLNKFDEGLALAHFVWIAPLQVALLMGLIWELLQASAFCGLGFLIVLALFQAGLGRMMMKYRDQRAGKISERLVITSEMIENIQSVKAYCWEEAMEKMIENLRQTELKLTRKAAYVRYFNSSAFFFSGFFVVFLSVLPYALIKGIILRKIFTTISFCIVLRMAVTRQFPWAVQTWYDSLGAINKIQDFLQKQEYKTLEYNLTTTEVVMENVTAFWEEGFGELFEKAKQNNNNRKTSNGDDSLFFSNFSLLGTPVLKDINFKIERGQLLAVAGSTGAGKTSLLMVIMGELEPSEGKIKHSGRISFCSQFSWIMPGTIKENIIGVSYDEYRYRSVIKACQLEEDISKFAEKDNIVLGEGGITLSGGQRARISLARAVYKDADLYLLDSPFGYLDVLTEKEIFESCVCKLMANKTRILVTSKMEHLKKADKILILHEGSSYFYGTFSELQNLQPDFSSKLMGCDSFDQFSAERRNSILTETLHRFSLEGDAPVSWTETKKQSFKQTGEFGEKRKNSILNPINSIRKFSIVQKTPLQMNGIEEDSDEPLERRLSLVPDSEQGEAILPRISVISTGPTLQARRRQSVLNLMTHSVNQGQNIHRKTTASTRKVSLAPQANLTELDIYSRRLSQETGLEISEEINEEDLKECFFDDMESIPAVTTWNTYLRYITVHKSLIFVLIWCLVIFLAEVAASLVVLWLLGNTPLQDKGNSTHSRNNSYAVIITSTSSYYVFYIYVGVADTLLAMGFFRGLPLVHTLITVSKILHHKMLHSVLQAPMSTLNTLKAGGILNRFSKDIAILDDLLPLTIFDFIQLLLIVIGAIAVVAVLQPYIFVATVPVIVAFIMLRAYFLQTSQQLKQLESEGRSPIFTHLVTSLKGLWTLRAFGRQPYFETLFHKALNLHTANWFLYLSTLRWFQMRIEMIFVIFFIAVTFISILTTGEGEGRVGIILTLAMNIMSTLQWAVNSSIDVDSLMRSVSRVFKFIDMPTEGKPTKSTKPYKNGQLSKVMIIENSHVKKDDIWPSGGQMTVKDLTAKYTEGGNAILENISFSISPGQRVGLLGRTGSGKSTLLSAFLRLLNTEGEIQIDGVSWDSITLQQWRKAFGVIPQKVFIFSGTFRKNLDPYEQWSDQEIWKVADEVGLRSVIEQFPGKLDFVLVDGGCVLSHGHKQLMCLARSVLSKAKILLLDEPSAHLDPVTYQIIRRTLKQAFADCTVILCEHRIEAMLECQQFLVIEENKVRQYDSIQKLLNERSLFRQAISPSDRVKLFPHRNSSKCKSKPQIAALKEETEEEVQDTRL

Row | Compound | EC50 [1] | Maximum % activity (with co-corrector) (with co-corrector) | EC50 [2] | Emax (without co-corrector)
1 | COc1ccc2c(S(=O)(=O)NC(=O)C3(c4cc(C5CC5)cnc4OC(C)C)CC3)cccc2n1 [II-95] | < 3 µM | +++ (≥350) | < 3 µM | > 150%
2 | CCOC(C)(C)c1ccc(OC)c(C2(C(=O)NS(=O)(=O)c3cccc4ncccc34)CC2)c1 [II-96] | < 3 µM | +++ (≥350) | < 3 µM | > 150%
3 | CCOc1ccc(C(C)(C)OC)cc1C1(C(=O)NS(=O)(=O)c2cccc3ncccc23)CC1 [II-97] | < 3 µM | +++ (≥350) | < 3 µM | > 150%
4 | CCc1ccc(OC(F)F)c(C2(C(=O)NS(=O)(=O)c3cccc4ncccc34)CC2)c1 [II-98] | < 3 µM | +++ (≥350) | < 3 µM | > 150%
5 | COc1ccc(C(C)(C)OC)cc1C1(C(=O)NS(=O)(=O)c2cccc3nc(C)ccc23)CC1 [II-99] | < 3 µM | +++ (≥350) | < 3 µM | > 150%
6 | COc1ccc(C2(OC)CCC2)cc1C1(C(=O)NS(=O)(=O)c2cccc3nc(C)ccc23)CC1 [II-100] | 3 to 10 µM | +++ (≥350) | < 3 µM | > 150%
7 | Cc1ccc(OC(F)F)c(C2(C(=O)NS(=O)(=O)c3cccc4nc(C)ccc34)CC2)c1 [II-101] | < 3 µM | +++ (≥350) | < 3 µM | > 150%
8 | Cc1ccc2c(S(=O)(=O)NC(=O)C3(c4cc(Cl)ccc4OC(F)F)CC3)cccc2n1 [II-102] | 3 to 10 µM | +++ (≥350) | < 3 µM | > 150%
9 | COC[C@H](C)Oc1ccc(C)cc1C1(C(=O)NS(=O)(=O)c2cccc3nc(C)ccc23)CC1 [II-104] | < 3 µM | +++ (≥350) | < 3 µM | > 150%
10 | CCOc1ccc(C(C)(C)COC)cc1C1(C(=O)NS(=O)(=O)c2cccc3nc(C)ccc23)CC1 [II-105] | < 3 µM | +++ (≥350) | < 3 µM | > 150%
11 | CCOC(C)(C)c1ccc(OC(F)F)c(C2(C(=O)NS(=O)(=O)c3cccc4ncccc34)CC2)c1 [II-106] | 3 to 10 µM | +++ (≥350) | 3 to 10 µM | > 150%
12 | CCOC(C)(C)c1ccc(OC(F)F)c(C2(C(=O)NS(=O)(=O)c3cccc4nc(C)ccc34)CC2)c1 [II-107] | < 3 µM | +++ (≥350) | < 3 µM | > 150%
13 | COC(C)(C)c1ccc(OC(F)F)c(C2(C(=O)NS(=O)(=O)c3cccc4ncccc34)CC2)c1 [II-108] | 3 to 10 µM | +++ (≥350) | 3 to 10 µM | > 150%

Next, values leading:

Row | EC50 [1] | Maximum % activity (with co-corrector) (with co-corrector) | EC50 [2] | Emax (without co-corrector) | Compound
14 | < 3 µM | +++ (≥350) | < 3 µM | > 150% | CCOCC(C)(C)c1ccc(OC)c(C2(C(=O)NS(=O)(=O)c3cccc4ncccc34)CC2)c1 [II-110]
15 | < 3 µM | +++ (≥350) | < 3 µM | > 150% | CCOCC(C)(C)c1ccc(OC)c(C2(C(=O)NS(=O)(=O)c3cccc4nc(C)ccc34)CC2)c1 [II-111]
16 | < 3 µM | +++ (≥350) | < 3 µM | > 150% | CC(C)COc1ncc(N(C)C)cc1C1(C(=O)NS(=O)(=O)c2cccc3ncccc23)CC1 [II-112]
17 | < 3 µM | +++ (≥350) | < 3 µM | > 150% | COCC(C)(C)c1ccc(OC)c(C2(C(=O)NS(=O)(=O)c3cccc4nc(C)ccc34)CC2)c1 [II-113]
18 | < 3 µM | +++ (≥350) | < 3 µM | > 150% | CCc1ccc(O[C@H]2CCOC2)c(C2(C(=O)NS(=O)(=O)c3cccc4nc(C)ccc34)CC2)c1 [II-115]
19 | 3 to 10 µM | +++ (≥350) | < 3 µM | > 150% | Cc1ccc(O[C@H]2CCOC2)c(C2(C(=O)NS(=O)(=O)c3cccc4ncccc34)CC2)c1 [II-117]
